Reference: patent publication US8835377B2, “Oral delivery of peptide pharmaceutical compositions” (UGP Therapeutics, Inc., priority 2004, dated 2014)

Assay: Pharmacokinetics after oral capsules (sCT plus Dmt-DALDA with citric acid and lauroyl carnitine), non-enteric coated or enteric coated, in fasted beagle dogs (plasma; ELISA for sCT, HPLC-MS for Dmt-DALDA)
Type: in vivo
Conditions: for AUC / Cmax: normalized to a 1 mg dose; for Tmax / Cmax: beagle, dog, plasma, oral; for plasma peptide concentration normalized to a 1 mg dose: enteric coated capsule
Procedure: A second series of tests was carried out, as noted above, using beagle dogs. […] In the experiments represented in FIGS. 2A and 2B, size 00 […] capsules were each filled with 758 mg of a powdered blend consisting of citric acid (643 mg), lauroyl carnitine (66 mg), talc (33 mg), salmon calcitonin (sCT) (13 mg) and Dmt-DALDA (2.4 mg). Half of the capsules were coated with an enteric coating solution of L30D-55, while the remaining 50% of the capsules were not coated. Four fasted dogs were each given 1 uncoated capsule, and 2 weeks later they were each given an enteric coated capsule. After administration of each capsule, samples of blood were taken at 15 minute intervals from an indwelling catheter for up to 4 hours. The blood samples were centrifuged and the resulting plasma supernatants were stored frozen at −20° C. The plasma samples were subsequently analyzed for sCT by a direct ELISA, and for Dmt-DALDA by HPLC-mass spectrometry performed as set forth in Wan, H. and Desiderio, D., Quantitation of [DMT^1] DALDA in ovine plasma by on-line liquid chromatography/quadrapole time-of-flight mass spectrometry, Rapid Communications in Mass Spectrometry, 2003; 17, 538-546, the contents of which are incorporated herein by reference.
The results summarized in FIGS. 2A and 2B as plasma peptide concentration normalized to a 1 mg dose as a function of time relative to the average Tmax, (i.e., the time at which the maximum amount of peptide was detected) indicate that both peptides, i.e., sCT and Dmt-DALDA, were detected in dogs given uncoated or enteric coated capsules. […] Table DI (below) sets forth the values upon which the curves in FIGS. 2A and 2B are based. The results are summarized in the tables as plasma peptide concentration normalized to a 1 mg dose as a function of time. Table III, moreover, provides the standard deviations for the data obtained regarding each of the test dogs, which standard deviations are also indicated in FIGS. 2A and 2B.
Table IV (below) summarizes the pharmacokinetic parameters in dogs of orally administered sCT and Dmt-DALDA when administered in non-enteric coated versus enteric coated capsules. Peptide was not detected from 1 dog in each group due to (a) Dog 3 vomiting the uncoated capsule and (b) delayed gastric emptying in Dog 2 provided with an enteric coated capsule. Cmax and AUC are as defined with regard to Table H above.

[1] = Non-Enteric Capsule, Avg (n = 3)

Cc1cc(O)cc(C)c1C[C@H](N)C(=O)N[C@H](CCCNC(=N)N)C(=O)N[C@@H](Cc1ccccc1)C(=O)N[C@@H](CCCCN)C(N)=O [Dmt-DALDA, H-2,6-dimethyltyrosine-D-Arginine-Phenylalanine-Lysine-NH2]
AUC (Enteric Capsule, Avg (n = 3)): 1443143 pg/mL-min | AUC (Enteric Capsule, Dog 1): 2375695 pg/mL-min | AUC (Enteric Capsule, Dog 2 (delayed gastric emptying)): 0 pg/mL-min | AUC (Enteric Capsule, Dog 3): 1185373 pg/mL-min | AUC (Enteric Capsule, Dog 4): 768361 pg/mL-min | AUC [1]: 542977 pg/mL-min | AUC (Non-Enteric Capsule, Dog 1): 410944 pg/mL-min | AUC (Non-Enteric Capsule, Dog 2): 707054 pg/mL-min | AUC (Non-Enteric Capsule, Dog 3 (vomited capsule)): 0 pg/mL-min | AUC (Non-Enteric Capsule, Dog 4): 510934 pg/mL-min | Tmax (Enteric Capsule, Avg (n = 3)): 100 min | Cmax (Enteric Capsule, Avg (n = 3)): 21 ng/mL | Tmax (Enteric Capsule, Dog 1): 45 min | Cmax (Enteric Capsule, Dog 1): 29.4 ng/mL | Tmax (Enteric Capsule, Dog 3): 135 min | Cmax (Enteric Capsule, Dog 3): 21.5 ng/mL | Tmax (Enteric Capsule, Dog 4): 120 min | Cmax (Enteric Capsule, Dog 4): 12.1 ng/mL | Tmax [1]: 40 min | Cmax [1]: 5.79 ng/mL | Tmax (Non-Enteric Capsule, Dog 1): 45 min | Cmax (Non-Enteric Capsule, Dog 1): 5.1 ng/mL | Tmax (Non-Enteric Capsule, Dog 2): 30 min | Cmax (Non-Enteric Capsule, Dog 2): 6.47 ng/mL | Tmax (Non-Enteric Capsule, Dog 4): 45 min | Cmax (Non-Enteric Capsule, Dog 4): 5.79 ng/mL | Cmax and AUC, enteric coated capsules versus non enteric-coated capsules (dogs): significantly enhanced | Cmax of enteric coated relative to non enteric coated (dogs): 4 fold | amount of peptide detected in plasma, enteric coated capsules vs non-coated capsules (dogs): nearly four times as much | time at which the maximum concentration was seen (dogs given coated capsules): 105 min | amount of Dmt-DALDA detected relative to sCT (dogs given enteric coated capsules): nearly equal amounts | amount of Dmt-DALDA detected relative to sCT (dogs given uncoated capsules): nearly three times as much | time at which the maximum concentration was seen (dogs given uncoated capsules): 30 min | plasma peptide concentration normalized to a 1 mg dose (Dog 1, 0 min): 0 pg/mL | plasma peptide concentration normalized to a 1 mg dose (Dog 1, 15 min): 0 pg/mL | plasma peptide concentration normalized to a 1 mg dose (Dog 1, 30 min): 0 pg/mL | plasma peptide concentration normalized to a 1 mg dose (Dog 1, 45 min): 29440 pg/mL | plasma peptide concentration normalized to a 1 mg dose (Dog 1, 60 min): 25224 pg/mL | plasma peptide concentration normalized to a 1 mg dose (Dog 1, 75 min): 19768 pg/mL | plasma peptide concentration normalized to a 1 mg dose (Dog 1, 90 min): 19021 pg/mL | plasma peptide concentration normalized to a 1 mg dose (Dog 1, 105 min): 12324 pg/mL | plasma peptide concentration normalized to a 1 mg dose (Dog 1, 120 min): 8108 pg/mL | plasma peptide concentration normalized to a 1 mg dose (Dog 1, 135 min): 10714 pg/mL | plasma peptide concentration normalized to a 1 mg dose (Dog 1, 150 min): 9349 pg/mL | plasma peptide concentration normalized to a 1 mg dose (Dog 1, 165 min): 6743 pg/mL | plasma peptide concentration normalized to a 1 mg dose (Dog 1, 180 min): 5502 pg/mL | plasma peptide concentration normalized to a 1 mg dose (Dog 1, 195 min): 5008 pg/mL | plasma peptide concentration normalized to a 1 mg dose (Dog 1, 210 min): 3021 pg/mL | plasma peptide concentration normalized to a 1 mg dose (Dog 2 (delayed gastric emptying), 0 min): 0 pg/mL | plasma peptide concentration normalized to a 1 mg dose (Dog 2 (delayed gastric emptying), 15 min): 0 pg/mL | plasma peptide concentration normalized to a 1 mg dose (Dog 2 (delayed gastric emptying), 30 min): 0 pg/mL | plasma peptide concentration normalized to a 1 mg dose (Dog 2 (delayed gastric emptying), 45 min): 0 pg/mL | plasma peptide concentration normalized to a 1 mg dose (Dog 2 (delayed gastric emptying), 60 min): 0 pg/mL | plasma peptide concentration normalized to a 1 mg dose (Dog 2 (delayed gastric emptying), 75 min): 0 pg/mL | plasma peptide concentration normalized to a 1 mg dose (Dog 2 (delayed gastric emptying), 90 min): 0 pg/mL | plasma peptide concentration normalized to a 1 mg dose (Dog 2 (delayed gastric emptying), 105 min): 0 pg/mL | plasma peptide concentration normalized to a 1 mg dose (Dog 2 (delayed gastric emptying), 120 min): 0 pg/mL | plasma peptide concentration normalized to a 1 mg dose (Dog 2 (delayed gastric emptying), 135 min): 0 pg/mL | plasma peptide concentration normalized to a 1 mg dose (Dog 2 (delayed gastric emptying), 150 min): 0 pg/mL | plasma peptide concentration normalized to a 1 mg dose (Dog 2 (delayed gastric emptying), 165 min): 0 pg/mL | plasma peptide concentration normalized to a 1 mg dose (Dog 2 (delayed gastric emptying), 180 min): 0 pg/mL | plasma peptide concentration normalized to a 1 mg dose (Dog 2 (delayed gastric emptying), 195 min): 0 pg/mL | plasma peptide concentration normalized to a 1 mg dose (Dog 2 (delayed gastric emptying), 210 min): 0 pg/mL | plasma peptide concentration normalized to a 1 mg dose (Dog 3, 0 min): 0 pg/mL | plasma peptide concentration normalized to a 1 mg dose (Dog 3, 15 min): 0 pg/mL | plasma peptide concentration normalized to a 1 mg dose (Dog 3, 30 min): 0 pg/mL
